These cell lines were tested with COc1cc(-c2nn([C@H]3CC[C@H](N4CCN(C(C)=O)CC4)CC3)c3ncnc(N)c23)ccc1NC(=O)c1cc2ccccc2n1C + CC1(C)CCC(c2ccc(Cl)cc2)=C(CN2CCN(c3ccc(C(=O)NS(=O)(=O)c4ccc(N[C@H](CCN5CCOCC5)CSc5ccccc5)c(S(=O)(=O)C(F)(F)F)c4)cc3)CC2)C1 [Navitoclax] (partner 0.5 µM) (assay: relative viability (nuclei count vs DMSO), 5 days (fraction); higher = more cells survive). Details: first compound 1.28 µM.
Method in brief: (§1)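 Each reported value is a median over duplicate plates. It expresses relative viability: treated-well nuclei count divided by vehicle-well nuclei count. Lung cancer cell lines in 1536-well plates were dosed by pin tool a day after seeding, alone with one drug or with a fixed anchor-drug dose plus five library-drug doses (not always all listed) in √10 steps, and nuclei were counted after 5 days.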
With COR-L 105 the relative viability was 0.456. In the case of LOU-NH91, the relative viability is reported as 0.638. NCI-H2170 was tested, and the relative viability was 0.453. NCI-H2405 showed a relative viability of 0.265. In the case of HOP-62, the relative viability is reported as 1.1. LU99A was tested, and the relative viability was 0.815. In the case of BEN, the relative viability is reported as 0.0568. HARA was tested, and the relative viability was 1. HCC-78 showed a relative viability of 0.621. Work on NCI-H322M yielded a relative viability of 1.12. LCLC-97TM1 showed a relative viability of 0.389. With NCI-H2009 the relative viability was 1.14. A-427 was tested, and the relative viability was 0.795. Cell Line NCI-H441 has a relative viability of 0.581. NCI-H1734 showed a relative viability of 0.736. NCI-H460 was tested, and the relative viability was 0.862. In the case of NCI-H2347, the relative viability is reported as 0.858. SK-LU-1 gave a relative viability of 0.567. For NCI-H1395, the relative viability was 0.881. 201T was tested, and the relative viability was 1.03. Cell Line NCI-H1915 has a relative viability of 0.706. In the case of HCC-827, the relative viability is reported as 1.04. With LXF-289 the relative viability was 0.959. In the case of NCI-H23, the relative viability is reported as 0.77. NCI-H647 showed a relative viability of 0.669. CAL-12T gave a relative viability of 1.44. In the case of NCI-H1651, the relative viability is reported as 0.963. EPLC-272H was tested, and the relative viability was 0.871. For NCI-H2228, the relative viability was 0.745. Cell Line NCI-H1355 has a relative viability of 0.967.

These cell lines were tested with CO[C@@H]1[C@H](N(C)C(=O)c2ccccc2)C[C@H]2O[C@]1(C)n1c3ccccc3c3c4c(c5c6ccccc6n2c5c31)C(=O)NC4 [Midostaurin] + Cc1cc(Nc2cc(N3CCN(C)CC3)nc(Sc3ccc(NC(=O)C4CC4)cc3)n2)n[nH]1 [Tozasertib] (partner 0.1 µM) in the same assay as above. Details: first compound 0.01 µM.
Method in brief: as §1
For COR-L 105, the relative viability was 0.404. LOU-NH91 was tested, and the relative viability was 0.722. NCI-H2170 showed a relative viability of 0.681. NCI-H2405 gave a relative viability of 0.752. With HOP-62 the relative viability was 0.363. For LU99A, the relative viability was 0.227. Cell Line BEN has a relative viability of 0.501. Cell Line HARA has a relative viability of 0.142. With HCC-78 the relative viability was 0.421. NCI-H322M gave a relative viability of 0.474. Cell Line LCLC-97TM1 has a relative viability of 0.21. NCI-H2009 showed a relative viability of 0.711. A-427 was tested, and the relative viability was 0.232. NCI-H441 showed a relative viability of 0.592. In the case of NCI-H1734, the relative viability is reported as 0.239. Work on NCI-H460 yielded a relative viability of 0.448. Work on NCI-H2347 yielded a relative viability of 0.494. Work on SK-LU-1 yielded a relative viability of 0.337. Work on NCI-H1395 yielded a relative viability of 0.726. Cell Line 201T has a relative viability of 0.974. With NCI-H1915 the relative viability was 0.46. HCC-827 gave a relative viability of 0.407. Work on LXF-289 yielded a relative viability of 0.23. For NCI-H23, the relative viability was 0.344. NCI-H647 gave a relative viability of 0.411. In the case of CAL-12T, the relative viability is reported as 0.345. Cell Line NCI-H1651 has a relative viability of 0.628. With EPLC-272H the relative viability was 0.261. Work on NCI-H2228 yielded a relative viability of 0.254. NCI-H1355 showed a relative viability of 0.544.

Same assay, conditions: first compound 0.03162 µM
COR-L 105 was tested, and the relative viability was 0.356. LOU-NH91 showed a relative viability of 0.608. For NCI-H2170, the relative viability was 0.769. With NCI-H2405 the relative viability was 0.677. HOP-62 gave a relative viability of 0.431. LU99A was tested, and the relative viability was 0.304. BEN gave a relative viability of 0.551. Work on HARA yielded a relative viability of 0.0861. HCC-78 showed a relative viability of 0.422. With NCI-H322M the relative viability was 0.477. Work on LCLC-97TM1 yielded a relative viability of 0.218. NCI-H2009 was tested, and the relative viability was 0.707. Work on A-427 yielded a relative viability of 0.215. Cell Line NCI-H441 has a relative viability of 0.631.

From the supplement of paper PMC10307832
